Measurements from US6011135A, “Triazine thiol derivative having a perfluoro group, method for producing same and use of same” (Iwate University, priority 1997, dated 2000).

Tests used:
Format in all cases: physicochemical
[1] = Oxidation potential, yardstick for easiness of tribological and electrolytic polymerization
Description: (§1) In Table 5 below, there is shown the effectiveness of 6-perfluoro alkylamino-1,3,5-triazine-2,4-dithiol of examples of the present invention by comparing the dissociation constants, oxidation potential and critical micelle concentration with those of the comparative example.
(§2) With respect to the dissociation constants (pKa1, pKa2), which may function as a yardstick for reactivity, all the examples of the present invention have lower dissociation constants than the comparative example. Accordingly, it is understood that the triazine thiol derivative having a perfluoro group of the present invention has an excellent reactivity. With regard to the oxidation potential which functions as a yardstick for easiness of tribological polymerization and electrolytic polymerization, each example has a lower oxidation potential than the comparative example. This means that an oxidative polymerization of the triazine thiol derivative having a perfluoro group according to the present invention is easier than that of the comparative example. Further, the critical micelle concentration of every example is lower than that of the comparative example. This means that micelle formation is easier in the examples and thus, the triazine thiol derivative having a perfluoro group according to the present invention has an excellent surface activity.

[2] = Dissociation constants (pKa1, pKa2), yardstick for reactivity; conditions: dissociation constant
Description: as §1, §2

[3] = Critical micelle concentration (surface activity)
Description: as §1, §2

[4] = Solubility of 6-perfluoro alkylamino-1,3,5-triazine-2,4-dithiol to various solvents; parameters: key to Solubility, Toluene: X: did not solved; Δ: slightly solved (1 wt % or less); .largecircle.: sufficiently solved (1-10 wt %); .circleincircle.: excellently solved (10 wt % or more)

Compound | Oxidation potential [1] [V vs. Ag^+ /Ag] | pKa1 [2] | pKa2 [2] | Critical micelle concentration [3] [mol/L] | Solubility, MEK [4] | Solubility, Acetic ether [4] | Solubility, Ethanol [4] | Solubility, Toluene [4] | Solubility, Water [4]
FC(F)(F)C(F)(F)C(F)(F)C(F)(F)C(F)(F)C(F)(F)C(F)(F)c1ccc(Nc2nc(S)nc(S)n2)cc1 [Comparative example, reference compound] | 0.90 | 8.3 | 10.7 | 0.022 | Δ (slightly solved (1 wt % or less)) | Δ (slightly solved (1 wt % or less)) | Δ (slightly solved (1 wt % or less)) | X | Δ (slightly solved (1 wt % or less))
FC(F)(F)C(F)(F)C(F)(F)C(F)(F)C(F)(F)C(F)(F)C(F)(F)CNc1nc(S)nc(S)n1 [Example 11] | 0.62 | 8.1 | 10.3 | 0.0021 | .largecircle. (sufficiently solved (1-10 wt %)) | Δ (slightly solved (1 wt % or less)) | .largecircle. (sufficiently solved (1-10 wt %)) | Δ (slightly solved (1 wt % or less)) | .largecircle. (sufficiently solved (1-10 wt %))
CCCCN(CC(F)(F)C(F)(F)C(F)(F)C(F)(F)C(F)(F)C(F)(F)C(F)(F)F)c1nc(S)nc(S)n1 [Example 12] | 0.46 | 7.4 | 10.4 | 2.1e-05 | .circleincircle. (excellently solved (10 wt % or more)) | .largecircle. (sufficiently solved (1-10 wt %)) | .largecircle. (sufficiently solved (1-10 wt %)) | .largecircle. (sufficiently solved (1-10 wt %)) | .largecircle. (sufficiently solved (1-10 wt %))
FC(F)(F)C(F)(F)C(F)(F)C(F)(F)C(F)(F)C(F)(F)C(F)(F)CN(c1nc(S)nc(S)n1)C1CCCCC1 [Example 13] | 0.78 | 6.2 | 10.6 | 5.6e-05 | .circleincircle. (excellently solved (10 wt % or more)) | .largecircle. (sufficiently solved (1-10 wt %)) | .largecircle. (sufficiently solved (1-10 wt %)) | .largecircle. (sufficiently solved (1-10 wt %)) | .largecircle. (sufficiently solved (1-10 wt %))
CCCCN(CC(F)(F)C(F)(F)C(F)(F)C(F)(F)C(F)(F)C(F)(F)C(F)(F)C(F)(F)C(F)(F)C(F)(F)F)c1nc(S)nc(S)n1 [Example 14] | 0.56 | 7.5 | 9.8 | 1.1e-05 | .circleincircle. (excellently solved (10 wt % or more)) | .largecircle. (sufficiently solved (1-10 wt %)) | .largecircle. (sufficiently solved (1-10 wt %)) | .largecircle. (sufficiently solved (1-10 wt %)) | .largecircle. (sufficiently solved (1-10 wt %))
